From ChEMBL document CHEMBL5316381, “Discovery of [1,2,3]Triazolo[4,5-c]quinoline Derivatives as a New Class of Ataxia-Telangiectasia Mutated Kinase Inhibitors” (ACS Med Chem Lett, 2023)

Biological target: Serine-protein kinase ATM (Homo sapiens, UniProt Q13315)
Assay: Inhibition of ATM (unknown origin) using GST-cMyc-p53 as substrate incubated for 30 mins in presence of Mg/ATP mix by HTRF-based analysis

Sequence of Serine-protein kinase ATM (Q13315 whole entry): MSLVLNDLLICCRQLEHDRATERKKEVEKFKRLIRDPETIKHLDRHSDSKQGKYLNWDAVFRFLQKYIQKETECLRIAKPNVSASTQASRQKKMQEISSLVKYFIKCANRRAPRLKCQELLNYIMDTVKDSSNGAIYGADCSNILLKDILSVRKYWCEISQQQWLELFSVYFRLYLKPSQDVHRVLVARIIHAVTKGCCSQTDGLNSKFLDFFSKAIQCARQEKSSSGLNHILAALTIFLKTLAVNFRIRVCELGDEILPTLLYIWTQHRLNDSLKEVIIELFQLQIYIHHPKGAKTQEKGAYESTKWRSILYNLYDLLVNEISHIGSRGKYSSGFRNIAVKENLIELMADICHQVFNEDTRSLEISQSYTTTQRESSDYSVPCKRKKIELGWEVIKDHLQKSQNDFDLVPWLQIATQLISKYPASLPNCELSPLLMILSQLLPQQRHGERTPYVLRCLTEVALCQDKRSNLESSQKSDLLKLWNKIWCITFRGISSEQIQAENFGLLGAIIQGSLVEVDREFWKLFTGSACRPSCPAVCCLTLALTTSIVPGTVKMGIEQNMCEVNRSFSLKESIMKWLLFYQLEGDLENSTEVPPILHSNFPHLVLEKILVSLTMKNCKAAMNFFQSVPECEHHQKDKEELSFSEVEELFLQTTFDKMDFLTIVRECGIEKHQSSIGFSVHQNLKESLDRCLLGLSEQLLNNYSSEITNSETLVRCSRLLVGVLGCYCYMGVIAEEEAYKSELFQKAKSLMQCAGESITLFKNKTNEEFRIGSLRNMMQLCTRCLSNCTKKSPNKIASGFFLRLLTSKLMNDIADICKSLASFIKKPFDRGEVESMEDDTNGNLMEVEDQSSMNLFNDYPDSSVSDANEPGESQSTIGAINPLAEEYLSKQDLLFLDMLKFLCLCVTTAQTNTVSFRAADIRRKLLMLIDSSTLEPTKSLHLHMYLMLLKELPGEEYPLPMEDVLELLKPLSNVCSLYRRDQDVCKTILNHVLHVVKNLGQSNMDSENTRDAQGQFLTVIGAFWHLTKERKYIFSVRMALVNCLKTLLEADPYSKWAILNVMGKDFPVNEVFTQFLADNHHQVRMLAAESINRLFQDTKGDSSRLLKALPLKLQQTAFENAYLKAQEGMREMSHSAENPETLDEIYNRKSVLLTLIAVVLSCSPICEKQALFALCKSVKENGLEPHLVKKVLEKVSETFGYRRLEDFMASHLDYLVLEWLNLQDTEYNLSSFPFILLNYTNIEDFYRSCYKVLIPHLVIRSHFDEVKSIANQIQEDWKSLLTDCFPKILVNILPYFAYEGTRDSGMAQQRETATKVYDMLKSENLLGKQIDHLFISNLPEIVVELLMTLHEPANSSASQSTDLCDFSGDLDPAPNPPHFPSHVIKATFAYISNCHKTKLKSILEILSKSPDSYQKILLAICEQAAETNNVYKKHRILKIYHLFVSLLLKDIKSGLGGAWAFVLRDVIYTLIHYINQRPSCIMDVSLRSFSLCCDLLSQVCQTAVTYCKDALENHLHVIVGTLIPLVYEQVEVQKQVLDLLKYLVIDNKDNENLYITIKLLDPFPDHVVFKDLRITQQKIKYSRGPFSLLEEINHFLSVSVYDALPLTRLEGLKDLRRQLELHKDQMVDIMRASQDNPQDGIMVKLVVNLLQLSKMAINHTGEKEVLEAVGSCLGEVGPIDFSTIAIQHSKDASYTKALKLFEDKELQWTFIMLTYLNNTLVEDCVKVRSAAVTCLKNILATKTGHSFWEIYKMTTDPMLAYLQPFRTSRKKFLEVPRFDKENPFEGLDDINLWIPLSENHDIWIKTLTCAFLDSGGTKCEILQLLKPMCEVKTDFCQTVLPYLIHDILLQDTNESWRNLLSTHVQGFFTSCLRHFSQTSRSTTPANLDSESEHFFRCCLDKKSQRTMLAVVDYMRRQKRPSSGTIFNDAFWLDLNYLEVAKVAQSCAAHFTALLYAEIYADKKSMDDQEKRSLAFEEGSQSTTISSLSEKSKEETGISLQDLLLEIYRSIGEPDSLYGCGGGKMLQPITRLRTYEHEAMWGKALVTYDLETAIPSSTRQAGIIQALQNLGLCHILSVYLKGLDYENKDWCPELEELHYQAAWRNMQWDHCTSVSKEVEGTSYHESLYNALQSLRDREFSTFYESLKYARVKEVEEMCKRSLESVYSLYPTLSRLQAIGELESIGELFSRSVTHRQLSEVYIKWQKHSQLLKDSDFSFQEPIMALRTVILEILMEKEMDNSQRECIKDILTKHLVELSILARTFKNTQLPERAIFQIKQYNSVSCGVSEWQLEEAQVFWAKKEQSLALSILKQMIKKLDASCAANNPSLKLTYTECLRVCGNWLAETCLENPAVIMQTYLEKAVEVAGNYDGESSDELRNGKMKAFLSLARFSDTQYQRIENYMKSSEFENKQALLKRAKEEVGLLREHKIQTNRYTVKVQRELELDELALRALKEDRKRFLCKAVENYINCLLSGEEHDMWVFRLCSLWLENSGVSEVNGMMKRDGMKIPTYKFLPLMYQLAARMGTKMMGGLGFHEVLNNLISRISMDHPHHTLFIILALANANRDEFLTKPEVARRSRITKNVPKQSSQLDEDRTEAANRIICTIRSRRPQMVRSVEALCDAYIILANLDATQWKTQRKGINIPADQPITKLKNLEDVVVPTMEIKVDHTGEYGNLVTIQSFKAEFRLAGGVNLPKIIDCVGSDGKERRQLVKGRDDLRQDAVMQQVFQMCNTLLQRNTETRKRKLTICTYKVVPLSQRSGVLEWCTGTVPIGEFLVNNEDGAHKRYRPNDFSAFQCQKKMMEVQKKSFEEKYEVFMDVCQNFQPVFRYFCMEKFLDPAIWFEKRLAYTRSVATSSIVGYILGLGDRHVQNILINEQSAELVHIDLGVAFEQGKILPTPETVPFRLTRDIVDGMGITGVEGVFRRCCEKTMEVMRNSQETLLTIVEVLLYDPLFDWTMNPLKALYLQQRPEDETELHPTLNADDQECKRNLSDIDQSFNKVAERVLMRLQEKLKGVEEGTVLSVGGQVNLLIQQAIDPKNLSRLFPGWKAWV

How did the IC50 turn out when `C[C@H](c1ccccc1)n1nnc2cnc3ccc(-c4ccc(N)cc4)cc3c21` was run?
The IC50 was 15 nM.

For `C[C@H](c1ccccc1)n1nnc2cnc3ccc(-c4ccc(OCCCN5CCN(C)CC5)nc4)cc3c21`, which IC50 is on record?
The IC50 was 2 nM.

`C[C@H](c1ccccc1)n1nnc2cnc3ccc(-c4ccc(N5CCCC5)nc4)cc3c21` was tested. Which IC50 did it give?
Its IC50 is 71 nM.

`Nc1ccc(-c2ccc3ncc4nnn(Cc5ccccc5)c4c3c2)cn1` was tested. Which IC50 did it give?
The IC50 was 8 nM.

How did the IC50 turn out when `CC(=O)Nc1ccc(-c2ccc3ncc4nnn([C@H](C)c5ccccc5)c4c3c2)cn1` was run?
The IC50 was 13 nM.

`COc1ccc([C@H](C)n2nnc3cnc4ccc(-c5ccc(N)nc5)cc4c32)cc1` was tested. Which IC50 did it give?
The IC50 was 103 nM.

How did the IC50 turn out when `Cc1ccc(-c2ccc3ncc4nnn([C@H](C)c5ccccc5)c4c3c2)cn1` was run?
Its IC50 is 35 nM.

For `C[C@H](c1ccccc1)n1nnc2cnc3ccc(-c4ccc(OCCCN5CCCCC5)nc4)cc3c21`, which IC50 is on record?
Its IC50 is 2 nM.

Which IC50 does the source give for `C[C@@H](c1cccc(F)c1)n1nnc2cnc3ccc(-c4ccc(N)nc4)cc3c21` here?
Its IC50 is 53 nM.

Which IC50 does the source give for `C[C@H](c1ccccc1)n1nnc2cnc3ccc(-c4cnc(N)nc4)cc3c21` here?
The IC50 was 15 nM.

With `C[C@H](c1ccccc1)n1nnc2cnc3ccc(-c4ccc(C#N)nc4)cc3c21` as the compound, how does the IC50 read?
The IC50 was 167 nM.

With `CC[C@@H](c1ccccc1)n1nnc2cnc3ccc(-c4ccc(N)nc4)cc3c21` as the compound, how does the IC50 read?
Its IC50 is 79 nM.

`C[C@H](c1ccccc1)n1nnc2cnc3ccc(-c4ccc(O)nc4)cc3c21` was tested. Which IC50 did it give?
Its IC50 is 25 nM.

Which IC50 does the source give for `COc1ccc(-c2ccc3ncc4nnn([C@H](C)c5ccccc5)c4c3c2)cn1` here?
Its IC50 is 13 nM.

`C[C@H](c1ccccc1)n1nnc2cnc3ccc(-c4ccc(C(F)(F)F)nc4)cc3c21` was tested. Which IC50 did it give?
Its IC50 is 225 nM.

`C[C@H](c1ccccc1)n1nnc2cnc3ccc(-c4cccnc4)cc3c21` was tested. Which IC50 did it give?
Its IC50 is 9 nM.

For `CNCCCOc1ccc(-c2ccc3ncc4nnn([C@H](C)c5ccccc5)c4c3c2)cn1`, which IC50 is on record?
Its IC50 is 166 nM.

With `C[C@H](c1cccc(F)c1)n1nnc2cnc3ccc(-c4ccc(N)nc4)cc3c21` as the compound, how does the IC50 read?
The IC50 was 4 nM.

Which IC50 does the source give for `C[C@H](c1ccccc1)n1nnc2cnc3ccc(-c4ccc(N5CCN(C)CC5)nc4)cc3c21` here?
The IC50 was 6 nM.
